As usually defined, the IC50 is the point on the concentration scale where inhibition reaches its midpoint. The low end stands for greater potency in that assay, the high end for weaker potency in that assay. In general, microsomal CLint refers to the rate of metabolic loss divided by the concentration. As a reminder, the Papp A→B is how fast a substance crosses the layer from the apical side. In general, Papp B→A refers to the apparent permeability from the basolateral to the apical side of a cell layer. Usually solubility stands for the concentration that dissolves in the medium under given conditions. Low readings indicate little dissolved substance, high ones much dissolved substance. What is called Papp is the rate of passage across a membrane or cell layer, normalised by area and donor concentration. Usually clearance stands for the volume of plasma or blood freed of the substance per unit of time. Lower therefore signals a low capacity for elimination. By efflux ratio is commonly meant the permeability from basolateral to apical divided by that in the opposite direction, in the common usage.

Values after ≈ are worked out from the molar mass of the structure shown.

Data on three compounds can be found in ChEMBL document CHEMBL5537208 (J Med Chem, 2024).

Data set [1] deals with Cytochrome P450 3A4 (Homo sapiens, UniProt P08684). In words: Inhibition of CYP3A4 (unknown origin) using testosterone as substrate. The data set is classed as ADME.
Cytochrome P450 3A4, sequence (P08684 whole entry): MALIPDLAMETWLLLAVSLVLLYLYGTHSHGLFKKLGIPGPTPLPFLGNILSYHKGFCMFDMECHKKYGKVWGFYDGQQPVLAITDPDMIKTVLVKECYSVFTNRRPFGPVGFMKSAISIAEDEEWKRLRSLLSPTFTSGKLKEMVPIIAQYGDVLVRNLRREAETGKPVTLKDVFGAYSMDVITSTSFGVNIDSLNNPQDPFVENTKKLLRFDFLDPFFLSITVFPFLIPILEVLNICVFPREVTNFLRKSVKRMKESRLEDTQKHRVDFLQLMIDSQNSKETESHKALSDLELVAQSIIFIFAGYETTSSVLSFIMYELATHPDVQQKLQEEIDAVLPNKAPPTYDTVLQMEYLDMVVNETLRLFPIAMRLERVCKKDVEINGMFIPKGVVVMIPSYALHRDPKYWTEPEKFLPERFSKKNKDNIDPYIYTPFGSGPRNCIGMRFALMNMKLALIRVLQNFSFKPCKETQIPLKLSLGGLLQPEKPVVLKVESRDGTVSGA
Data set [2] deals with T1, Orexin receptor type 2 (Homo sapiens, UniProt O43614).
T1 sequence (O43614 whole entry): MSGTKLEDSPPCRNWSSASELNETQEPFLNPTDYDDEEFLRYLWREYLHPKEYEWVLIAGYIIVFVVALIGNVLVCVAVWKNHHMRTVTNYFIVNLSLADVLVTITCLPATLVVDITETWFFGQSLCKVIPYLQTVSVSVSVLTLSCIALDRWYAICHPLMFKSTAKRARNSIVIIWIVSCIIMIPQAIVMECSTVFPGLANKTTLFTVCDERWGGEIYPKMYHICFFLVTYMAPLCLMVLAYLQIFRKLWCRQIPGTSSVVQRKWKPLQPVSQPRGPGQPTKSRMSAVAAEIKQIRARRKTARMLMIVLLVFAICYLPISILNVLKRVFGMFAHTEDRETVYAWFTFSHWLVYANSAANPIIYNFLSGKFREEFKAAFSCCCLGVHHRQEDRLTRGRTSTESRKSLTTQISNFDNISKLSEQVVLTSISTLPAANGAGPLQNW
Description: Antagonist activity at human OX2R expressed in CHO cells preincubated for 120 mins followed by orexin-A addition by FLIPR assay

Data set [3] is described as follows: Unbound drug concentration in Wistar rat plasma at 1 mg/kg, po measured after 1 hr by LC-tandem MS analysis. Particulars: in vivo; call rule not given here. The data set is classed as ADME, organism-based.
Data set [4] can be described thus: Unbound drug concentration in Wistar rat brain at 1 mg/kg, po measured after 1 hr by LC-tandem MS analysis. It is filed as ADME, organism-based. The conditions noted are these: in vivo.
Data set [5] can be described thus: Drug concentration in cerebrospinal fluid of Wistar rat at 1 mg/kg, po measured after 1 hr by LC-tandem MS analysis. The data set is classed as ADME, organism-based. Particulars: read-out: Ct.
Data set [6] can be described thus: Ratio of unbound drug concentration in Wistar rat brain to plasma at 1 mg/kg, po measured after 1 hr by LC-tandem MS analysis. It is filed as ADME, organism-based. Particulars: read-out: K(p,uu,brain).
Data set [7] can be described thus: Drug concentration in Wistar rat Cerebrospinal fluid at 30 mg/kg, po measured after 1 hr by LC-tandem MS analysis. It is filed as ADME, organism-based. The conditions noted are these: read-out: Ct.
Data set [8] is described as follows: Unbound drug concentration in Wistar rat brain at 30 mg/kg, po measured after 1 hr by LC-tandem MS analysis. The data set is classed as ADME, organism-based. Particulars: in vivo.
A short description of data set [9]: In vivo receptor occupancy at OX2R in Wistar rat brain at 30 mg/kg, po measured after 1 hr relative to control. The data set is classed as functional.
Data set [10] in a line: Drug concentration in Wistar rat Cerebrospinal fluid at 100 mg/kg, po measured after 1 hr by LC-tandem MS analysis. It is filed as ADME, organism-based. The conditions noted are these: read-out: Ct.
Data set [11] in a line: Unbound drug concentration in Wistar rat brain at 100 mg/kg, po measured after 1 hr by LC-tandem MS analysis. The data set is classed as ADME, organism-based. The conditions noted are these: in vivo.
The nature of data set [12]: In vivo receptor occupancy at OX2R in Wistar rat brain at 100 mg/kg, po measured after 1 hr relative to control. The data set is classed as functional.
Data set [13] is described as follows: in vitro. The conditions noted are these: human, liver microsomes.
Data set [14] can be described thus: Apparent permeability across apical to basal side in MDCKI-MDR1 cells. Particulars: dog, MDCK-MDR1. The data set is classed as ADME, cell-based, Canis lupus familiaris.
Data set [15] in a line: Apparent permeability across basal to apical side in MDCKI-MDR1 cells. Particulars: dog, MDCK-MDR1. The data set is classed as ADME, cell-based, Canis lupus familiaris.
The nature of data set [16]: Solubility of compound in FeSSIF. It is filed as ADME.
Data set [17] in a line: Drug absorption in rat. Particulars: in vivo. It is filed as ADME.
A short description of data set [18]: Drug absorption in dog. It is filed as ADME, Canis lupus familiaris. Particulars: in vivo.
Data set [19] in a line: Thermodynamic solubility in FaSSIF at pH 6.5. The data set is classed as ADME. Particulars: read-out: Therm_solubility.
A short description of data set [20]: Thermodynamic solubility in FeSSIF at pH 5.0. The data set is classed as ADME. Particulars: read-out: Therm_solubility.
The nature of data set [21]: Apparent permeability in wild-type MDCK-II cells. It is filed as ADME, cell-based, Canis lupus familiaris. The conditions noted are these: dog.
The nature of data set [22]: Clearance in rat. The conditions noted are these: in vivo. The data set is classed as ADME.
A short description of data set [23]: Clearance in dog. It is filed as ADME, Canis lupus familiaris. Particulars: in vivo.
The target in data set [24] is T2, Orexin/Hypocretin receptor type 1 (Homo sapiens, UniProt O43613).
T2 sequence (O43613 whole entry): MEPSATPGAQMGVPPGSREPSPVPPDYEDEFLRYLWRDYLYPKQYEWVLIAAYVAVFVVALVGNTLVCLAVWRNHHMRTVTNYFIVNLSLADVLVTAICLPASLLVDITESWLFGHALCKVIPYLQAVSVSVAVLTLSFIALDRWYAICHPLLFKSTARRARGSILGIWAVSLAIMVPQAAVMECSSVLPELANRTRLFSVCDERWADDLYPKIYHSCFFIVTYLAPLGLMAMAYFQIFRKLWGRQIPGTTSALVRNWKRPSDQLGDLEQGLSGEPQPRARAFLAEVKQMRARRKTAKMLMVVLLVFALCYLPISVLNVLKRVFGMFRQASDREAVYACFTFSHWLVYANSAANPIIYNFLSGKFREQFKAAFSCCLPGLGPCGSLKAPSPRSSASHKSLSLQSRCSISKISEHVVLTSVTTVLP
Description: Antagonist activity at human OX1R expressed in CHO cells preincubated for 120 mins followed by orexin-A addition by FLIPR assay

Data set [25] in a line: in vitro. Particulars: rat, liver microsomes.
Data set [26] in a line: in vitro. Particulars: dog, MDCK-MDR1.
Description: Efflux ratio in MDCKI-MDR1 cells

`Cc1ccc(-n2nccn2)c(C(=O)N2CCNC[C@H]2Cc2cccc(-n3nccn3)c2)c1`: the IC50 in data set [1] was found to be 25000 nM; in data set [2] it was 666 nM.
For `Cc1ccc(C(=O)N2CCOC[C@H]2Cc2cc(-n3nccn3)ccc2F)c(-n2nccn2)c1`, the “Cp(f)” value in data set [3] is 177 nM. The entries for the “Drug uptake(free)” value in data set [4], in [8] and in [11] were 307 nM, 10 nM and 307 nM, respectively. Further, the concentration at 1 h in data set [5] came out at 550 nM; in data set [7], 45 nM; in data set [10] it was 550 nM. Moreover, the Kp uu at 1 h in [6] was determined as 1.73. Further, the values for the Occ in data set [9] and in data set [12] were 13% and 82%, respectively. The compound also came in with a microsomal CLint at 1 µM in data set [13] of 99 µL/min/mg.
For the compound `Cc1ccc(C(=O)N2CCOC[C@H]2Cc2cccc(-n3nccn3)c2)c(-n2nccn2)c1` [NIVASOREXANT], the Papp A→B in [14] worked out at 20.4 ×10⁻⁶ cm/s. Also, the basolateral-to-apical permeability (Papp B→A) in data set [15] stood at 70.5 ×10⁻⁶ cm/s. For the same compound, in data set [3], the “Cp(f)” value is reported as 227 nM. For the same compound, the “Drug uptake(free)” value was 413 nM in data set [4], 92 nM in data set [8] and 413 nM in data set [11]. The figures for the concentration at 1 h in data set [5], in data set [7] and in data set [10] were 718 nM, 240 nM and 718 nM, respectively. Moreover, the Kp uu at 1 h in data set [6] came to 1.82. In data set [16], this compound yielded a solubility of 270 µg/mL (≈ 629 µM). Moreover, the Occ was 71% in [9] and 92% in data set [12]. For the same compound, the Drug absorption result in data set [17] and in [18] was “Active” in each case. Besides, the solubility thermodynamic in data set [19] worked out at 72 µg/mL (≈ 168 µM); in data set [20], 150 µg/mL (≈ 349 µM). The Papp in data set [21] was 43.9 ×10⁻⁶ cm/s. In addition, the values for the clearance in [22] and in data set [23] were 31 mL/min/kg and 7.7 mL/min/kg, respectively. Besides, the values for the IC50 in data set [24] and in data set [2] were 1.7 nM and 227 nM, respectively. The intrinsic clearance (microsomal CLint) at 1 µM in [13] is 156 µL/min/mg; in data set [25], over 1250 µL/min/mg. Also, the efflux ratio in data set [26] turned out to be 3.5.
